Measurements as given in PubChem BioAssay (NCI).
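How tested: cells in 96-well plates exposed to compound for 48 hours at five concentrations. Definition used: TGI = concentration required for complete inhibition of growth.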

Experiments:
Test in all cases: NCI tumour cell line growth inhibition, 48 h
HCT-15 colon = tested on: HCT-15 colon
IGROV1 ovarian = tested on: IGROV1 ovarian
HOP-92 NSCLC = tested on: HOP-92 NSCLC
SNB-75 CNS = tested on: SNB-75 CNS
K-562 leukemia = tested on: K-562 leukemia
RPMI-8226 leukemia = tested on: RPMI-8226 leukemia
DU-145 prostate = tested on: DU-145 prostate
MDA-MB-231 breast = tested on: MDA-MB-231 breast
HOP-62 NSCLC = tested on: HOP-62 NSCLC
HL-60(TB) leukemia = tested on: HL-60(TB) leukemia
786-0 renal = tested on: 786-0 renal
HS 578T breast = tested on: HS 578T breast
SR leukemia = tested on: SR leukemia
SW-620 colon = tested on: SW-620 colon
LOX IMVI melanoma = tested on: LOX IMVI melanoma
NCI-H226 lung = tested on: NCI-H226 lung
UACC-62 melanoma = tested on: UACC-62 melanoma
SF-268 CNS = tested on: SF-268 CNS
NCI-H522 lung = tested on: NCI-H522 lung
NCI-H460 lung = tested on: NCI-H460 lung
SN12C renal = tested on: SN12C renal
ACHN renal = tested on: ACHN renal
RXF 393 renal = tested on: RXF 393 renal
NCI-H23 lung = tested on: NCI-H23 lung
HCT-116 colon = tested on: HCT-116 colon
OVCAR-3 ovarian = tested on: OVCAR-3 ovarian
SK-MEL-5 melanoma = tested on: SK-MEL-5 melanoma
OVCAR-5 ovarian = tested on: OVCAR-5 ovarian
SK-MEL-2 melanoma = tested on: SK-MEL-2 melanoma
A498 renal = tested on: A498 renal
HCC-2998 colon = tested on: HCC-2998 colon
UO-31 renal = tested on: UO-31 renal
MDA-N = tested on: MDA-N
KM12 colon = tested on: KM12 colon
NCI/ADR-RES ovarian = tested on: NCI/ADR-RES ovarian
U251 CNS = tested on: U251 CNS
CAKI-1 renal = tested on: CAKI-1 renal
OVCAR-4 ovarian = tested on: OVCAR-4 ovarian
SF-295 CNS = tested on: SF-295 CNS
MALME-3M melanoma = tested on: MALME-3M melanoma
SF-539 CNS = tested on: SF-539 CNS
HT29 colon = tested on: HT29 colon
T-47D breast = tested on: T-47D breast
A549 NSCLC = tested on: A549 NSCLC
SK-OV-3 ovarian = tested on: SK-OV-3 ovarian
SK-MEL-28 melanoma = tested on: SK-MEL-28 melanoma
UACC-257 melanoma = tested on: UACC-257 melanoma
SNB-19 CNS = tested on: SNB-19 CNS
CCRF-CEM leukemia = tested on: CCRF-CEM leukemia
TK-10 renal = tested on: TK-10 renal
BT-549 breast = tested on: BT-549 breast
PC-3 prostate = tested on: PC-3 prostate
COLO 205 colon = tested on: COLO 205 colon
MCF7 breast = tested on: MCF7 breast
OVCAR-8 ovarian = tested on: OVCAR-8 ovarian
MDA-MB-435 = tested on: MDA-MB-435
EKVX NSCLC = tested on: EKVX NSCLC
MOLT-4 leukemia = tested on: MOLT-4 leukemia
M14 melanoma = tested on: M14 melanoma

CN(C)c1ccc(/C=C2\C[C@H]3[C@@H]4CCc5cc(OCCN6CCCC6)ccc5[C@H]4CC[C@]3(C)[C@H]2O)cc1
TGI (HCT-15 colon): > 100 µM | TGI (IGROV1 ovarian): 39.7 µM | TGI (HOP-92 NSCLC): 24.7 µM | TGI (SNB-75 CNS): 28 µM | TGI (K-562 leukemia): > 37.5 µM | TGI (RPMI-8226 leukemia): > 63.8 µM | TGI (DU-145 prostate): 26.2 µM | TGI (MDA-MB-231 breast): 16.4 µM | TGI (HOP-62 NSCLC): 35.5 µM | TGI (HL-60(TB) leukemia): 43.3 µM | TGI (786-0 renal): 5.05 µM | TGI (HS 578T breast): > 61.9 µM | TGI (SR leukemia): 10.2 µM | TGI (SW-620 colon): 18.6 µM | TGI (LOX IMVI melanoma): > 100 µM | TGI (NCI-H226 lung): 37.4 µM | TGI (UACC-62 melanoma): 39.5 µM | TGI (SF-268 CNS): 61.7 µM | TGI (NCI-H522 lung): 7.69 µM | TGI (NCI-H460 lung): 30.2 µM | TGI (SN12C renal): 47.4 µM | TGI (ACHN renal): 42.9 µM | TGI (RXF 393 renal): 33.9 µM | TGI (NCI-H23 lung): 31.4 µM | TGI (HCT-116 colon): 8.78 µM | TGI (OVCAR-3 ovarian): 30.9 µM | TGI (SK-MEL-5 melanoma): 22.9 µM | TGI (OVCAR-5 ovarian): 31.1 µM | TGI (SK-MEL-2 melanoma): 34.8 µM | TGI (A498 renal): 34.9 µM | TGI (HCC-2998 colon): 14.5 µM | TGI (UO-31 renal): 16.8 µM | TGI (MDA-N): 46.3 µM | TGI (KM12 colon): > 60.2 µM | TGI (NCI/ADR-RES ovarian): 53.6 µM | TGI (U251 CNS): 17.6 µM | TGI (CAKI-1 renal): 30 µM | TGI (OVCAR-4 ovarian): > 58.8 µM | TGI (SF-295 CNS): 30.4 µM | TGI (MALME-3M melanoma): > 30.2 µM | TGI (SF-539 CNS): 22 µM | TGI (HT29 colon): > 25.7 µM | TGI (T-47D breast): 47.5 µM | TGI (A549 NSCLC): 20.3 µM | TGI (SK-OV-3 ovarian): 31.7 µM | TGI (SK-MEL-28 melanoma): 11.9 µM | TGI (UACC-257 melanoma): 19.5 µM | TGI (SNB-19 CNS): 46.1 µM | TGI (CCRF-CEM leukemia): 5.99 µM | TGI (TK-10 renal): 11.6 µM | TGI (BT-549 breast): 31.1 µM | TGI (PC-3 prostate): 48.9 µM | TGI (COLO 205 colon): 27.9 µM | TGI (MCF7 breast): 30.1 µM | TGI (OVCAR-8 ovarian): 18.9 µM | TGI (MDA-MB-435): 39 µM | TGI (EKVX NSCLC): 41.8 µM | TGI (MOLT-4 leukemia): 46 µM

CC(C)(C)OC(=O)NC(Cc1ccc(OCc2ccccc2)cc1)C(=O)NC(COCc1ccccc1)C(=O)Oc1c(Cl)c(Cl)c(Cl)c(Cl)c1Cl (centres undefined)
TGI (HCT-15 colon): 33.5 µM | TGI (IGROV1 ovarian): 41.7 µM | TGI (HOP-92 NSCLC): 32.8 µM | TGI (SNB-75 CNS): > 100 µM | TGI (K-562 leukemia): > 100 µM | TGI (RPMI-8226 leukemia): > 100 µM | TGI (DU-145 prostate): 46.8 µM | TGI (MDA-MB-231 breast): 27.6 µM | TGI (HOP-62 NSCLC): 32.9 µM | TGI (HL-60(TB) leukemia): > 100 µM | TGI (HS 578T breast): 41.8 µM | TGI (SR leukemia): > 100 µM | TGI (SW-620 colon): 73 µM | TGI (LOX IMVI melanoma): 53 µM | TGI (NCI-H226 lung): 54.5 µM | TGI (UACC-62 melanoma): 32.3 µM | TGI (SF-268 CNS): 65.6 µM | TGI (NCI-H522 lung): 42 µM | TGI (NCI-H460 lung): 36.7 µM | TGI (SN12C renal): 62.4 µM | TGI (M14 melanoma): 42.9 µM | TGI (ACHN renal): 76.6 µM | TGI (RXF 393 renal): 63.9 µM | TGI (NCI-H23 lung): 35.6 µM | TGI (HCT-116 colon): 30.1 µM | TGI (OVCAR-3 ovarian): 28.9 µM | TGI (SK-MEL-5 melanoma): 33.7 µM | TGI (OVCAR-5 ovarian): 67.3 µM | TGI (SK-MEL-2 melanoma): 36.6 µM | TGI (A498 renal): 53.2 µM | TGI (HCC-2998 colon): 40.5 µM | TGI (UO-31 renal): 30.7 µM | TGI (MDA-N): 80.8 µM | TGI (KM12 colon): 39 µM | TGI (NCI/ADR-RES ovarian): 50 µM | TGI (U251 CNS): 38.1 µM | TGI (CAKI-1 renal): 47.4 µM | TGI (OVCAR-4 ovarian): 85.3 µM | TGI (SF-295 CNS): 52.4 µM | TGI (MALME-3M melanoma): 68.2 µM | TGI (SF-539 CNS): 29.7 µM | TGI (HT29 colon): 69.7 µM | TGI (T-47D breast): 88.5 µM | TGI (A549 NSCLC): 89.7 µM | TGI (SK-OV-3 ovarian): 46.9 µM | TGI (SK-MEL-28 melanoma): 71.8 µM | TGI (UACC-257 melanoma): 84.8 µM | TGI (SNB-19 CNS): > 100 µM | TGI (CCRF-CEM leukemia): > 100 µM | TGI (TK-10 renal): 85.8 µM | TGI (BT-549 breast): 38.3 µM | TGI (PC-3 prostate): 40.4 µM | TGI (COLO 205 colon): 36.5 µM | TGI (MCF7 breast): 48.2 µM | TGI (OVCAR-8 ovarian): 52.6 µM | TGI (MDA-MB-435): 56.7 µM | TGI (EKVX NSCLC): 82.4 µM | TGI (MOLT-4 leukemia): > 100 µM

CCOC(NC(=O)CC)(C(F)(F)F)C(F)(F)F
TGI (HCT-15 colon): > 100 µM | TGI (IGROV1 ovarian): > 100 µM | TGI (HOP-92 NSCLC): > 100 µM | TGI (SNB-75 CNS): > 100 µM | TGI (K-562 leukemia): > 100 µM | TGI (RPMI-8226 leukemia): > 100 µM | TGI (DU-145 prostate): > 100 µM | TGI (MDA-MB-231 breast): > 100 µM | TGI (HOP-62 NSCLC): > 100 µM | TGI (HL-60(TB) leukemia): > 100 µM | TGI (786-0 renal): > 100 µM | TGI (HS 578T breast): > 100 µM | TGI (SR leukemia): > 100 µM | TGI (SW-620 colon): > 100 µM | TGI (LOX IMVI melanoma): > 100 µM | TGI (NCI-H226 lung): > 100 µM | TGI (UACC-62 melanoma): > 100 µM | TGI (SF-268 CNS): > 100 µM | TGI (NCI-H522 lung): > 100 µM | TGI (NCI-H460 lung): > 100 µM | TGI (SN12C renal): > 100 µM | TGI (M14 melanoma): > 100 µM | TGI (ACHN renal): > 100 µM | TGI (RXF 393 renal): 61.2 µM | TGI (NCI-H23 lung): > 100 µM | TGI (HCT-116 colon): > 100 µM | TGI (OVCAR-3 ovarian): > 100 µM | TGI (SK-MEL-5 melanoma): > 100 µM | TGI (OVCAR-5 ovarian): > 100 µM | TGI (SK-MEL-2 melanoma): > 100 µM | TGI (A498 renal): > 100 µM | TGI (HCC-2998 colon): > 100 µM | TGI (UO-31 renal): > 100 µM | TGI (MDA-N): > 100 µM | TGI (KM12 colon): > 100 µM | TGI (NCI/ADR-RES ovarian): > 100 µM | TGI (U251 CNS): > 100 µM | TGI (CAKI-1 renal): > 100 µM | TGI (SF-295 CNS): > 100 µM | TGI (MALME-3M melanoma): > 100 µM | TGI (SF-539 CNS): > 100 µM | TGI (HT29 colon): > 100 µM | TGI (T-47D breast): > 100 µM | TGI (A549 NSCLC): > 100 µM | TGI (SK-OV-3 ovarian): > 100 µM | TGI (SK-MEL-28 melanoma): > 100 µM | TGI (UACC-257 melanoma): > 100 µM | TGI (SNB-19 CNS): > 100 µM | TGI (CCRF-CEM leukemia): > 100 µM | TGI (TK-10 renal): > 100 µM | TGI (BT-549 breast): > 100 µM | TGI (PC-3 prostate): > 100 µM | TGI (COLO 205 colon): > 100 µM | TGI (MCF7 breast): > 100 µM | TGI (OVCAR-8 ovarian): > 100 µM | TGI (MDA-MB-435): > 100 µM | TGI (EKVX NSCLC): > 100 µM | TGI (MOLT-4 leukemia): > 100 µM
